target: T1, human TGR5 (Homo sapiens, UniProt Q8TDU6); experiment: Cell-based TGR5 assay (cAMP generation, HTRF); details: HEK293 cells stably transfected with human TGR5; cAMP by HTRF; 30 minutes at 37° C.; read-out: pEC50 Human TGR5 (converted)
T1 construct: expressed in transfected cells; host or cells: HEK293
T1 sequence (Q8TDU6 1-330): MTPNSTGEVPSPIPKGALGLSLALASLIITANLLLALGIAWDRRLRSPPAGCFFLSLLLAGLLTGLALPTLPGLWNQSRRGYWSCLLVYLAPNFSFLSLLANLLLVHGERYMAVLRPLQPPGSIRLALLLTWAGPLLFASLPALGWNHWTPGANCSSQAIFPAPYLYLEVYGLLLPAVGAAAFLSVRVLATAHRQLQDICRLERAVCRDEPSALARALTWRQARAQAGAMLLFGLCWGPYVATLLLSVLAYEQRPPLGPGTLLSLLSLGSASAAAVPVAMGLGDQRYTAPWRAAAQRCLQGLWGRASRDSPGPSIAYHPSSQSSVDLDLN
Summary of the method: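 Read-out was HTRF detection of cAMP, converted to concentration via a standard curve and fitted (3-parameter logistic) for pEC50 and maximal response. Agonist stimulation used HEK293 cells stably transfected with human TGR5, incubated 30 min at 37° C in IBMX-containing buffer at 0.05 nM to 10 μM compound.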

| EC50 [nM] | Structure (SMILES) |
| --- | --- |
| < 100 | C=C(CCCNC(=O)[C@@H](O)[C@@H](O)[C@H](O)[C@@H](O)CO)c1ccc(Cl)c(CNC2(c3cnccc3-c3ccccc3OC3CC3)CC2)c1 [Compound I-381, (2S,3S,4R,5S)-N-(4-[4-chloro-3-[([1-[4-(2-cyclopropoxyphenyl)pyridin-3-yl]cyclopropyl]amino)methyl]phenyl]pent-4-en-1-yl)-2,3,4,5,6-pentahydroxyhexanamide] |
| 126 to 1000 | FC(F)(F)Oc1ccccc1-c1ccncc1C1(NCc2cc(Cl)ccc2Cl)CC1 [Compound I-11] |
| < 100 | CS(=O)(=O)CCN(CCCCSc1ccc(Cl)c(COC2(c3cnccc3-c3ccccc3OC3CC3)CC2)c1)C(=O)[C@@H](O)[C@@H](O)[C@H](O)[C@@H](O)CO [Compound I-559, (2S,3S,4R,5S)-N-(4-{[4-chloro-3-({1-[4-(2-cyclopropoxyphenyl)pyridin-3-yl]cyclopropoxy}methyl)phenyl]sulfanyl}butyl)-2,3,4,5,6-pentahydroxy-N-(2-methanesulfonylethyl)hexanamide] |
| < 100 | CC(=O)N(CCCCSc1ccc(Cl)c(CNC2(c3cnccc3-c3ccccc3OC3CC3)CC2)c1)C[C@H](O)[C@@H](O)[C@H](O)[C@H](O)CO [Compound I-503, N-[4-({4-chloro-3-[({1-[4-(2-cyclopropoxyphenyl)pyridin-3-yl]cyclopropyl}amino)methyl]phenyl}sulfanyl)butyl]-N-[(2S,3R,4R,5R)-2,3,4,5,6-pentahydroxyhexyl]acetamide] |
| < 100 | COc1cccc(Cl)c1-c1ccncc1C1(OCc2cc(Cl)ccc2Cl)CC1 [Compound I-765, 4-(2-chloro-6-methoxyphenyl)-3-(1-((2,5-dichlorobenzyl)oxy)cyclopropyl)pyridine] |
| < 100 | O=C([C@@H](O)[C@@H](O)[C@H](O)[C@@H](O)CO)N(CCCCCO)CCCCCSc1ccc(Cl)c(COC2(c3cnccc3-c3ccccc3OC3CC3)CC2)c1 [Compound I-606, (2S,3S,4R,5S)-N-(5-{[4-chloro-3-({1-[4-(2-cyclopropoxyphenyl)pyridin-3-yl]cyclopropoxy}methyl)phenyl]sulfanyl}pentyl)-2,3,4,5,6-pentahydroxy-N-(5-hydroxypentyl)hexanamide] |
| 126 to 1000 | CNS(=O)(=O)CCN(C[C@H](O)[C@@H](O)[C@H](O)[C@H](O)CO)C(=O)CCCSc1ccc(Cl)c(COC2(c3cnccc3-c3ccccc3OC3CC3)CC2)c1 [Compound I-694, 4-{[4-chloro-3-({1-[4-(2-cyclopropoxyphenyl)pyridin-3-yl]cyclopropoxy}methyl)phenyl]sulfanyl}-N-[2-(methylsulfamoyl)ethyl]-N-[(2S,3R,4R,5R)-2,3,4,5,6-pentahydroxyhexyl]butanamide] |
| 126 to 1000 | O=C(NCCCCCOc1ccc(Cl)c(COC2(c3cnccc3-c3ccccc3OC3CC3)CC2)c1)N[C@@H](CO)[C@@H](O)[C@H](O)[C@H](O)CO [Compound I-760, 1-(5-(4-chloro-3-((1-(4-(2-cyclopropoxyphenyl)pyridin-3-yl)cyclopropoxy)methyl)phenoxy)pentyl)-3-((2S,3R,4S,5R)-1,3,4,5,6-pentahydroxyhexan-2-yl)urea] |
| < 100 | Clc1ccc(Cl)c(COC2(c3cnccc3-c3ccccc3OC3CC3)CC2)c1 [Compound I-46, 4-(2-cyclopropoxyphenyl)-3-{1-[(2,5-dichlorophenyl)methoxy]cyclopropyl}pyridine] |
| < 100 | CN(C[C@H](O)[C@@H](O)[C@H](O)[C@H](O)CO)C(=O)c1ccc(CSc2ccc(Cl)c(COC3(c4cnccc4-c4ccccc4OC4CC4)CC3)c2)cc1 [Compound I-685, 4-({[4-chloro-3-({1-[4-(2-cyclopropoxyphenyl)pyridin-3-yl]cyclopropoxy}methyl)phenyl]sulfanyl}methyl)-N-methyl-N-[(2S,3R,4R,5R)-2,3,4,5,6-pentahydroxyhexyl]benzamide] |
| < 100 | CC(OCc1cc(S(=O)(=O)N(CCCCNC(=O)N[C@@H](CO)[C@@H](O)[C@H](O)[C@H](O)CO)C(C)C)ccc1Cl)c1cnccc1-c1ccccc1OC1CC1 (stereo partly drawn) [Compound I-752, 4-chloro-3-((1-(4-(2-cyclopropoxyphenyl)pyridin-3-yl)ethoxy)methyl)-N-isopropyl-N-(4-(3-((2S,3R,4S,5R)-1,3,4,5,6-pentahydroxyhexan-2-yl)ureido)butyl)benzenesulfonamide] |
| < 100 | Cc1cc(COC2(c3cnccc3-c3ccccc3OC3COC3)CC2)c(Cl)cc1CCCCNC(=O)NC[C@H](O)[C@@H](O)[C@H](O)[C@H](O)CO (stereo in doubt) [Compound I-190, 1-(4-{5-chloro-2-methyl-4-[(1-{4-[2-(oxetan-3-yloxy)phenyl]pyridin-3-yl}cyclopropoxy)methyl]phenyl}butyl)-3-[(2S,3R,4R,5R)-2,3,4,5,6-pentahydroxyhexyl]urea] |
| < 100 | COCCCN(CCCC(C)c1ccc(Cl)c(CNC2(c3cnccc3-c3ccccc3OC3CC3)CC2)c1)C(=O)[C@@H](O)[C@@H](O)[C@H](O)[C@@H](O)CO (stereo partly drawn) [Compound I-284, (2S,3S,4R,5S)-N-(4-{4-chloro-3-[({1-[4-(2-cyclopropoxyphenyl)pyridin-3-yl]cyclopropyl}amino)methyl]phenyl}pentyl)-2,3,4,5,6-pentahydroxy-N-(3-methoxypropyl)hexanamide] |
| < 100 | CS(=O)(=O)CCCN(CCCCSc1ccc(Cl)c(COC2(c3cnccc3-c3ccccc3OC3CC3)CC2)c1)C(=O)[C@@H](O)[C@@H](O)[C@H](O)[C@@H](O)CO [Compound I-523, (2S,3S,4R,5S)-N-(4-{[4-chloro-3-({1-[4-(2-cyclopropoxyphenyl)pyridin-3-yl]cyclopropoxy}methyl)phenyl]sulfanyl}butyl)-2,3,4,5,6-pentahydroxy-N-(3-methanesulfonylpropyl)hexanamide] |
| < 100 | O=C1NCCN1CCN(CCCCSc1ccc(Cl)c(COC2(c3cnccc3-c3ccccc3OC3CC3)CC2)c1)C(=O)[C@@H](O)[C@@H](O)[C@H](O)[C@@H](O)CO [Compound I-517, (2S,3S,4R,5S)-N-(4-{[4-chloro-3-({1-[4-(2-cyclopropoxyphenyl)pyridin-3-yl]cyclopropoxy}methyl)phenyl]sulfanyl}butyl)-2,3,4,5,6-pentahydroxy-N-[2-(2-oxoimidazolidin-1-yl)ethyl]hexanamide] |
| < 100 | O=C(CCN(CCC(=O)NC[C@H](O)[C@@H](O)[C@H](O)[C@H](O)CO)C(=O)CCCCc1cc(Cl)c(COC2(c3cnccc3-c3ccccc3OC3CC3)CC2)cc1Cl)NC[C@H](O)[C@@H](O)[C@H](O)[C@H](O)CO (stereo in doubt) [Compound I-168, 5-[2,5-dichloro-4-({1-[4-(2-cyclopropoxyphenyl)pyridin-3-yl]cyclopropoxy}methyl)phenyl]-N,N-bis(2-{[(2S,3R,4R,5R)-2,3,4,5,6-pentahydroxyhexyl]carbamoyl}ethyl)pentanamide] |
| < 100 | CN(CCCCNC(=O)N[C@@H](CO)[C@@H](O)[C@H](O)[C@H](O)CO)S(=O)(=O)c1cc(CNC2(c3cnccc3-c3ccccc3OC3CC3)CC2)c(Cl)cc1F [Compound I-475, 1-(4-{N-methyl4-chloro-5-[({1-[4-(2-cyclopropoxyphenyl)pyridin-3-yl]cyclopropyl}amino)methyl]-2-fluorobenzenesulfonamido}butyl)-3-[(2S,3R,4S,5R)-1,3,4,5,6-pentahydroxyhexan-2-yl]urea] |
| 126 to 1000 | CC(=O)NCCN(CCCSc1ccc(Cl)c(COC2(c3cnccc3-c3ccccc3OC3CC3)CC2)c1)C(=O)[C@@H](O)[C@@H](O)[C@H](O)[C@@H](O)CO [Compound I-595, (2S,3S,4R,5S)-N-(3-{[4-chloro-3-({1-[4-(2-cyclopropoxyphenyl)pyridin-3-yl]cyclopropoxy}methyl)phenyl]sulfanyl}propyl)-N-(2-acetamidoethyl)-2,3,4,5,6-pentahydroxyhexanamide] |
| 126 to 1000 | Clc1ccc(Cl)c(CNC2(c3cnccc3-c3ccccc3C3CC3)CC2)c1 [Compound I-10, 1-[4-(2-cyclopropylphenyl)pyridin-3-yl]-N-[(2,5-dichlorophenyl)methyl]cyclopropan-1-amine] |
| 126 to 1000 | Cn1c(C(=O)N[C@@H](CO)[C@@H](O)[C@H](O)[C@H](O)CO)cnc1SCc1ccc(Cl)c(COC2(c3cnccc3-c3ccccc3OC3CC3)CC2)c1 [Compound I-759, 2-((4-chloro-3-((1-(4-(2-cyclopropoxyphenyl)pyridin-3-yl)cyclopropoxy)methyl)benzyl)thio)-1-methyl-N-((2S,3R,4S,5R)-1,3,4,5,6-pentahydroxyhexan-2-yl)-1H-imidazole-5-carboxamide] |
| 1260 to 10000 | NC(=O)N(Cc1cc(Cl)ccc1Cl)C1(c2cnccc2-c2ccccc2OC2CC2)CC1 [Compound I-57, 1-[1-[4-(2-cyclopropoxyphenyl)pyridin-3-yl]cyclopropyl]-1-[(2,5-dichloro-phenyl)methyl]urea] |
| 1260 to 10000 | Cc1ccc(SCCCC(=O)N(C)C[C@H](O)[C@@H](O)[C@H](O)[C@H](O)CO)nc1CNC1(c2cnccc2-c2ccccc2OC2CC2)CC1 [Compound I-654, 4-({6-[({1-[4-(2-cyclopropoxyphenyl)pyridin-3-yl]cyclopropyl}amino)methyl]-5-methylpyridin-2-yl}sulfanyl)-N-methyl-N-[(2S,3R,4R,5R)-2,3,4,5,6-pentahydroxyhexyl]butanamide] |

| Structure (SMILES) | EC50 [nM] |
| --- | --- |
| Clc1ccc(Cl)c(COC2(c3cnccc3-c3ccccc3OC3CCC3)CC2)c1 [Compound I-49, 4-(2-cyclobutoxyphenyl)-3-{1-[(2,5-dichlorophenyl)methoxy]cyclopropyl}pyridine] | < 100 |

Reference: patent publication US12084472B2 (Ardelyx, Inc., priority 2015, dated 2024)
